Laboratory results reported in patent US11618743B2, “Herbicidal compounds” (SYNGENTA PARTICIPATIONS AG, priority 2017, dated 2023).

Assays:
Assay in all cases: Post-emergence efficacy, Method A
Type in all cases: in vivo
[1] = test system: Amaranthus palmeri (AMAPA); details: Application rate 500 g/Ha, evaluated after 13 days; for Control of weed species AMAPA after post-emergence application (100=total damage to plant; 0=no damage to plant): Method A; for Control of weed species after post-emergence application, AMAPA: 100=total damage to plant, 0=no damage
Description: (§1) Seeds of a variety of test species were sown in standard soil in pots. After cultivation for 14 days (post-emergence) under controlled conditions in a glasshouse (at 24/16° C., day/night; 14 hours light; 65% humidity), the plants were sprayed with an aqueous spray solution derived from the dissolution of the technical active ingredient formula (I) in a small amount of acetone and a special solvent and emulsifier mixture referred to as IF50 (11.12% Emulsogen EL360 TM+44.44% N-methylpyrrolidone+44.44% Dowanol DPM glycol ether), to create a 50 g/l solution which was then diluted to required concentration using 0.25% or 1% Empicol ESC70 (Sodium lauryl ether sulphate)+1% ammonium sulphate as diluent.
(§2) The test plants were then grown in a glasshouse under controlled conditions (at 24/16° C., day/night; 14 hours light; 65% humidity) and watered twice daily. After 13 days the test was evaluated (100=total damage to plant; 0=no damage to plant).
(§3) Ipomoea hederacea (IPOHE), Euphorbia heterophylla (EPHHL), Chenopodium album (CHEAL), Amaranthus palmeri (AMAPA), Lolium perenne (LOLPE), Digitaria sanguinalis (DIGSA), Eleusine indica (ELEIN), Echinochloa crus-galli (ECHCG), Setaria faberi (SETFA)

[2] = test system: Chenopodium album (CHEAL); details: Application rate 500 g/Ha, evaluated after 13 days; for Control of weed species CHEAL after post-emergence application (100=total damage to plant; 0=no damage to plant): Method A; for Control of weed species after post-emergence application, CHEAL: 100=total damage to plant, 0=no damage
Description: as §1, §2, §3

[3] = test system: Echinochloa crus-galli (ECHCG); details: Application rate 500 g/Ha, evaluated after 13 days; for Control of weed species ECHCG after post-emergence application (100=total damage to plant; 0=no damage to plant): Method A; for Control of weed species after post-emergence application, ECHCG: 100=total damage to plant, 0=no damage
Description: as §1, §2, §3

[4] = test system: Euphorbia heterophylla (EPHHL); details: Application rate 500 g/Ha, evaluated after 13 days; for Control of weed species EPHHL after post-emergence application (100=total damage to plant; 0=no damage to plant): Method A; for Control of weed species after post-emergence application, EPHHL: 100=total damage to plant, 0=no damage
Description: as §1, §2, §3

Eleusine indica (ELEIN) = details: Application rate 500 g/Ha, evaluated after 13 days; for Control of weed species ELEIN after post-emergence application (100=total damage to plant; 0=no damage to plant): Method A; for Control of weed species after post-emergence application, ELEIN: 100=total damage to plant, 0=no damage
Description: as §1, §2, §3

[5] = test system: Digitaria sanguinalis (DIGSA); details: Application rate 500 g/Ha, evaluated after 13 days; for Control of weed species DIGSA after post-emergence application (100=total damage to plant; 0=no damage to plant): Method A; for Control of weed species after post-emergence application, DIGSA: 100=total damage to plant, 0=no damage
Description: as §1, §2, §3

Setaria faberi (SETFA) = details: Application rate 500 g/Ha, evaluated after 13 days; for Control of weed species SETFA after post-emergence application (100=total damage to plant; 0=no damage to plant): Method A; for Control of weed species after post-emergence application, SETFA: 100=total damage to plant, 0=no damage
Description: as §1, §2, §3

SMILES	Control of weed species AMAPA after post-emergence application (100=total damage to plant; 0=no damage to plant) [1]	Control of weed species CHEAL after post-emergence application (100=total damage to plant; 0=no damage to plant) [2]	Control of weed species ECHCG after post-emergence application (100=total damage to plant; 0=no damage to plant) [3]	Control of weed species EPHHL after post-emergence application (100=total damage to plant; 0=no damage to plant) [4]	Control of weed species ELEIN after post-emergence application (100=total damage to plant; 0=no damage to plant) (Eleusine indica (ELEIN))	Control of weed species DIGSA after post-emergence application (100=total damage to plant; 0=no damage to plant) [5]	Control of weed species SETFA after post-emergence application (100=total damage to plant; 0=no damage to plant) (Setaria faberi (SETFA))	Control of weed species after post-emergence application, AMAPA [1]	Control of weed species after post-emergence application, CHEAL [2]	Control of weed species after post-emergence application, ECHCG [3]	Control of weed species after post-emergence application, EPHHL [4]	Control of weed species after post-emergence application, ELEIN (Eleusine indica (ELEIN))	Control of weed species after post-emergence application, DIGSA [5]	Control of weed species after post-emergence application, SETFA (Setaria faberi (SETFA))
O=C(O)CC[n+]1ccc(-c2ccccn2)cn1.O=C([O-])C(F)(F)F [Compound A148]	100	40	50	60	40	50	50							
O=C(O)CC[n+]1ccc(-c2ccncc2F)cn1.O=C([O-])C(F)(F)F [Compound A157]								100	100	80	80	90	70	80
O=C([O-])C(F)(F)F.O=P(O)(O)CC[n+]1ccc(-c2ncccn2)cn1 [Compound A198]								100	100	80	100	80	80	90
O=C(O)CC[n+]1ccc(-c2ccnc(O)n2)cn1.O=C([O-])C(F)(F)F [Compound A86]	30	40	20	50	10	30	40							
CCOC(=O)CC[n+]1ccc(-c2ncccn2)cn1.O=C([O-])C(F)(F)F [Compound A82]	70	80	30	40	60	30	60							
O=C(O)C(O)C[n+]1ccc(-c2ncccn2)cn1.O=C([O-])C(F)(F)F (stereo not shown) [Compound A180]								100	90	70	80	90	60	70
O=C(O)CC[n+]1ccc(-c2ncc(F)cc2F)cn1.O=C([O-])C(F)(F)F [Compound A144]	20	10	20	20	20	30	20							
CC(C)OC(=O)CC[n+]1ccc(-c2ncccn2)cn1.O=C([O-])C(F)(F)F [Compound A81, isopropyl 3-(4-pyrimidin-2-ylpyridazin-1-ium-1-yl)propanoate 2,2,2-trifluoroacetate]	100	90	90	100	80	100	90							
Cc1n[n+](CCC(=O)O)ccc1-c1ncccn1.O=C([O-])C(F)(F)F [Compound A132]	90	30	70	30	90	90	100							
Nc1cc(-c2cc[n+](CCC(=O)O)nc2)ccn1.O=C([O-])C(F)(F)F [Compound A210]								70	10	10	10	20	60	30
O=C(O)CC[n+]1ccc(-c2ncc(C(F)(F)F)cn2)cn1.O=C([O-])C(F)(F)F [Compound A129]	70	50	90	70	40	60	60							
O=C([O-])C(F)(F)F.O=S(=O)(O)CCC[n+]1ccc(-c2cnccn2)cn1 [Compound A10]	100	100	30	100	50	60	60							
Cc1c[n+](CCC(=O)O)ncc1-c1ncccn1.O=C([O-])C(F)(F)F [Compound A153]								90	60	40	40	20	20	20
